# According to patent US20210299150A1, “AP39 IMPACT ON MITOCHONDRIA, METABOLISM, GENE TRANSCRIPTION REGULATION, CARDIOTOXICITY PROTECTION AND CANCER TREATMENT” (priority 2020, published 2021):
# How the values were obtained:
# [1] = system: H9C2 cells; assay: Mitochondrial ROS, MitoSox Red, H9C2; type: cell-based, Rat; conditions: H9C2, Dox alone
# Protocol: AP39 treatment also ameliorated Dox toxicity in a model of Rat cardiomyoblast cell line, H9C2. […] There was a narrow window of protection, as 30 μM and 50 μm doses were not as strong as the 40 μM dose (FIGS. 5A and B) in conferring protection. […] Note that Dox caused an apoptotic phenotype in correlation with ROS levels (FIG. 5F, Dox lane). This in vitro AP39 protection is modest when compared to the in vivo scenario. This difference may be due to rapid clearance of toxic metabolites (for instance, higher lactate production, FIG. 10D) and better oxygen supply (AP39 stimulated OCR, FIG. 7C) in vivo and lack of such sophistication in vitro.
# [2] = system: H9C2 cells; assay: Mitochondrial H2S levels (AzMAC) and morphology (mitotracker Red) in H9C2 cells; type: cell-based, Rat; conditions: H9C2, single agent vs control
# Source text: Note that white arrow heads and yellow arrows compare and contrast no-H2S: fusion and H2S-presence: fission scenarios in the same image AP39 treatment lane.
# Mitochondrial fission was correlated with H2S levels. To investigate the impact of Dox on mitochondrial biogenesis and mitochondrial H2S levels, H9C2 cells were used in combination with H2S sensitive dye AzMAC and mitotracker Red dye as reported previously^8. […] Further, H2S levels (yellow arrows) highly correlated with a dotted appearance of mitochondria, implying that H2S causes mitochondrial fission, which is a prerequisite for eliminating damaged mitochondria^49.
# [3] = system: Myc/Max-regulated transcripts; assay: RNAseq analysis in H9C2 cell line; type: cell-based, Rat; conditions: H9C2, Dox alone
# Protocol: The coverage among groups are indicated.
# Next, to interrogate mechanisms of AP39 protection against DIC, RNAseq analysis was performed. There was sufficient coverage of the whole transcriptome among the groups (FIG. 8A).
# [4] = 13C-glucose isotope tracing and GC-MS metabolite quantification; type: cell-based
# Protocol: Stable isotope (13C glucose) tracer studies. Heatmap.
# To this end, 13C-glucose flux/isotope tracing and quantified metabolites through GC-MS were examined at 16 hrs and 24 hrs after the treatments. Glucose, glutamine and lactate were also measured in supernatants at these time points. […] With the exception of glycolytic metabolites, the remaining metabolic pathways (poor labeling) were non-operational after Dox treatment (FIG. 10A).
# When considered AP39-mediated activation of AMPK, H2S is selectively halting energy consuming anabolic pathways, such as protein synthesis (also, lipid, AMPK inhibits […], a rate limiting lipid synthesizing enzyme, FIGS. 7A and B), as observed before^41, thus leading to accumulation of amino acids and is enhancing TCA cycle through AMPK activation. The net result is better energy management with AP39/H2S treatment.
# [5] = system: hiPSC-CMs; assay: DIC in hiPSC-CMs (Annexin V, MitoSox Red); type: cell-based, human
# [6] = system: SK-N-BE(2) neuroblastoma cell line; assay: Cell viability (images, MTT) of SK-N-BE(2) neuroblastoma cell line; type: cell-based, human
# Protocol: (§1) Methods for cell viability: Cells were plated in 96 wells/6 wells cell culture plates. After 24 hrs of plating, the treatments (added in the growth medium) were conducted. The following assays were performed after 24 hrs of the treatments (day 2). (FIGS. 15A, 17-20, 24-27)
# (§2) MTT assay methods. For the MTT assay, […] of 5 mg/ml MTT-tetrazolium salts in PBS was added to each well containing the growth medium. After 3 hours of incubation, the medium was removed and the formazan crystals were dissolved by adding DMSO. The absorption of the formazan solution was measured using a spectrophotometer at a wavelength of 570 nm. FIGS. 15B, 21-22.
# The SK-N-BE(2) neuroblastoma cell line was exposed to control, AP39 (AP) at 40 or 60 μM, Doxorubicin at 2.5 or 20 μM, thiolactate at 10 mM, AP39 and Doxorubicin, AP39 and thiolactate, or Doxorubicin and Thiolactate. […] FIGS. 17, 21, 24-25.
# [7] = system: SK-N-BE(2) and SK-N-BE(1) cell lines; conditions: previous study; cited from earlier work
# [8] = cited from earlier work
# [9] = system: 786-O cells renal cancer cells; assay: Cell viability of 786-O renal cancer cells; type: cell-based
# Protocol: as §1, §2
# 786-O cells renal cancer cells were exposed to control, AP39 (AP) at 40 or 60 μM, Doxorubicin at 2.5 or 20 μM, thiolactate at 10 mM, AP39 and Doxorubicin, AP39 and thiolactate, or Doxorubicin and Thiolactate. […] FIGS. 18 and 21.
# [10] = system: A549 lung cancer cells; assay: Cell viability of A549 lung cancer cells; type: cell-based
# Protocol: as §1, §2
# A549 lung cancer cells were exposed to control, AP39 (AP) at 40 or 60 μM, Doxorubicin at 2.5 or 20 μM, thiolactate at 10 mM, AP39 and Doxorubicin, AP39 and thiolactate, or Doxorubicin and Thiolactate. […] FIGS. 19 and 21.
# [11] = system: H1299 lung cancer cells; assay: Cell viability of H1299 lung cancer cells; type: cell-based
# Protocol: as §1, §2
# H1299 lung cancer cells were exposed to control, AP39 (AP) at 40 or 60 μM, Doxorubicin at 2.5 or 20 μM, thiolactate at 10 mM, AP39 and Doxorubicin, AP39 and thiolactate, or Doxorubicin and Thiolactate. […] FIGS. 20-22.
# [12] = system: MCF7 breast cancer cells; assay: Cell viability (MTT, crystal violet) of MCF7 breast cancer cells; type: cell-based
# Protocol: as §1, §2
# Crystal Violet (CV) assay. For the CV Staining assay, cells were stained with 0.5% crystal violet in 30% ethanol for 10 minutes at room temperature after removal of the medium. The cells were lysed in a 1% SDS (sodium dodecyl sulfate) solution. The absorbance of the solution was measured using a spectrophotometer at a wavelength of 595 nm. FIG. 27.
# MCF7 breast cancer cells were exposed to control, AP39 (AP) at 40 or 60 μM, Doxorubicin at 2.5 or 20 μM, thiolactate at 10 mM, AP39 and Doxorubicin, AP39 and thiolactate, or Doxorubicin and Thiolactate. […] FIGS. 26-27.
# [13] = AP39 40 or 60 μM, thiolactate 10 mM, 24 hrs
# [14] = combination with Doxorubicin 2.5 μM
compound,measurement,setting,value
"COc1cccc2c1C(=O)c1c(O)c3c(c(O)c1C2=O)C[C@@](O)(C(=O)CO)C[C@@H]3O[C@H]1C[C@H](N)[C@H](O)[C@H](C)O1 [Dox, Doxorubicin]",mitochondrial ROS levels,[1],elevating damaging ROS levels
same,mitochondrial H2S levels (AzMAC),[2],significantly reduced mitochondrial H2S production
same,mitochondrial morphology (fission / fusion),[2],mitochondrial fusion
same,Myc transcription,[3],attenuated Myc transcription
same,Serine and glycine 13C labeling,[4]; 16 hrs and 24 hrs,highly labeled
same,abundance of most metabolites (GC-MS),[4]; 24 hrs of Dox treatment,present in abundant amounts
same,DIC in hiPSC-CMs at lower dose of Dox,"[5]; 2.5 μM Dox, donor, data not showed",exhibited resistance to DIC
same,cell death in hiPSC-CMs,"[5]; 7.5 μM Dox, 48 hrs",significant cell death
same,effective Dox dose,[6]; AP39 used along with Dox,2.5 µM
same,IC70 of Dox,"[6]; Dox alone, 24 hrs",20 µM
same,IC90 for SK-N-BE(2) relative to IC90 for SK-N-BE(1),[7],9230 times
same,late cardiac dysfunction incidence,[8]; after Dox treatment,16%
same,sub-clinical disease rate,[8]; after Dox treatment,over 50%
same,Cumulative left ventricular systolic dysfunction (LVSD) incidence rate,[8]; within 18 months of Dox treatment,12%
"CC(S)C(=O)O (stereo not drawn) [thiolactate, Thiolactate]","cell killing, agent alone",[6]; [13],able to kill SK-N-BE(2) cells
same,potency of low doses of Doxorubicin,[6]; [14],able to increase the potency of low doses of Doxorubicin
same,"cell killing, agent alone",[9]; [13],able to kill renal cancer cells
same,potency of low doses of Doxorubicin,[9]; [14],able to increase the potency of low doses of Doxorubicin
same,"cell killing, agent alone",[10]; [13],able to kill lung cancer cells
same,potency of low doses of Doxorubicin,[10]; [14],able to increase the potency of low doses of Doxorubicin
same,"cell killing, agent alone",[11]; [13],able to kill lung cancer cells
same,potency of low doses of Doxorubicin,[11]; [14],able to increase the potency of low doses of Doxorubicin
same,"cell killing, agent alone",[12]; [13],able to kill breast cancer cells
same,potency of low doses of Doxorubicin,[12]; [14],able to increase the potency of low doses of Doxorubicin
